From patent US20220323406A1, “METHODS AND COMPOSITIONS FOR DIFFERENTIATING STEM CELLS” (Massachusetts Institute of Technology, priority 2019, published 2022)

Columns and labels:
[1] = test system: ENR+CD organoids (ISC to Paneth cell differentiation); test: Primary screen: CCh-stimulated lysozyme secretion LYZ.S, 2.5-D 384-well ENR+CD organoid differentiation; assay type: cell-based, mouse; details: primary screen
Description: (§1) High-throughput screening.

ENR+CD organoids = test: Primary screen: ATP (CellTiter-Glo 3D, CTG) cell number/viability, 2.5-D 384-well ENR+CD organoids; details: primary screen; for Z.CTG: standard z score;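 as to all read-outs here: compounds given at plating and again on day 3 over a 6-day differentiation from ENR+CV stem-cell-enriched precursors, ATP measured on day 6, plate median as control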
[2] = test system: ENR+CD organoids (ISC to Paneth cell differentiation); test: Primary screen: basal (non-stimulated) lysozyme secretion LYZ.NS, 2.5-D 384-well ENR+CD organoid differentiation; assay type: cell-based, mouse; details: primary screen; for Z.LYZ.NS: standard z score
Description: as §1

[3] = 1st dose row of the treatment (0.08 uM by row order; dose not reprinted)
[4] = 2nd dose row of the treatment (0.40 uM by row order; dose not reprinted)
[5] = 3rd dose row of the treatment (2.00 uM by row order; dose not reprinted)
[6] = 4th dose row of the treatment (10.00 uM by row order; dose not reprinted)
[7] = dose 0.08 uM, FC relative to plate median
[8] = dose 0.40 uM, FC relative to plate median
[9] = dose 2.00 uM, FC relative to plate median
[10] = dose 10.00 uM, FC relative to plate median
[11] = dose 0.08 uM, FC vs plate median
[12] = dose 0.40 uM, FC vs plate median
[13] = dose 2.00 uM, FC vs plate median
[14] = dose 10.00 uM, FC vs plate median

N#Cc1c(O)c2c(-c3ccc(-c4ccccc4O)cc3)csc2[nH]c1=O [A-769662]
SSMD.LYZ.S_Rep (strictly standardized mean difference) [1, 3]: 0.365 | Z.LYZ.S (standard z score) [1, 3]: 0.426 | SSMD.LYZ.S_Rep (strictly standardized mean difference) [1, 4]: 0.472 | Z.LYZ.S (standard z score) [1, 4]: 0.460 | SSMD.LYZ.S_Rep (strictly standardized mean difference) [1, 5]: 0.488 | Z.LYZ.S (standard z score) [1, 5]: 1.191 | SSMD.LYZ.S_Rep (strictly standardized mean difference) [1, 6]: 0.119 | Z.LYZ.S (standard z score) [1, 6]: 0.121 | Dose.FC.LYZ.S ([1]; dose 0.08 uM): 0.066 log2 fold change | Dose.FC.LYZ.S ([1]; dose 0.40 uM): 0.071 log2 fold change | Dose.FC.LYZ.S ([1]; dose 2.00 uM): 0.184 log2 fold change | Dose.FC.LYZ.S ([1]; dose 10.00 uM): 0.019 log2 fold change | SSMD.CTG.Rep (strictly standardized mean difference) (ENR+CD organoids; [3]): −0.255 | SSMD.CTG.Rep (strictly standardized mean difference) (ENR+CD organoids; [4]): 0.019 | SSMD.CTG.Rep (strictly standardized mean difference) (ENR+CD organoids; [5]): −0.312 | SSMD.CTG.Rep (strictly standardized mean difference) (ENR+CD organoids; [6]): −0.056 | Dose.FC.CTG (ENR+CD organoids; dose 0.08 uM): −0.074 log2 fold change | Z.CTG (standard z score) (ENR+CD organoids; dose 0.08 uM): −0.177 | Dose.FC.CTG (ENR+CD organoids; dose 0.40 uM): 0.007 log2 fold change | Z.CTG (standard z score) (ENR+CD organoids; dose 0.40 uM): 0.016 | Dose.FC.CTG (ENR+CD organoids; dose 2.00 uM): −0.127 log2 fold change | Z.CTG (standard z score) (ENR+CD organoids; dose 2.00 uM): −0.304 | Dose.FC.CTG (ENR+CD organoids; dose 10.00 uM): −0.015 log2 fold change | Z.CTG (standard z score) (ENR+CD organoids; dose 10.00 uM): −0.036 | SSMD.LYZ.NS_Rep (strictly standardized mean difference) [2, 3]: 0.286 | SSMD.LYZ.NS_Rep (strictly standardized mean difference) [2, 4]: 0.498 | SSMD.LYZ.NS_Rep (strictly standardized mean difference) [2, 5]: 0.554 | SSMD.LYZ.NS_Rep (strictly standardized mean difference) [2, 6]: 0.068 | Dose.FC.LYZ.NS ([2]; dose 0.08 uM): 0.045 log2 fold change | Z.LYZ.NS (standard z score) ([2]; dose 0.08 uM): 0.394 | Dose.FC.LYZ.NS ([2]; dose 0.40 uM): 0.069 log2 fold change | Z.LYZ.NS (standard z score) ([2]; dose 0.40 uM): 0.599 | Dose.FC.LYZ.NS ([2]; dose 2.00 uM): 0.054 log2 fold change | Z.LYZ.NS (standard z score) ([2]; dose 2.00 uM): 0.473 | Dose.FC.LYZ.NS ([2]; dose 10.00 uM): 0.009 log2 fold change | Z.LYZ.NS (standard z score) ([2]; dose 10.00 uM): 0.075

CCn1c(=O)c2c(nc(/C=C/c3ccc(OC)c(OC)c3)n2C)n(CC)c1=O [Istradefylline]
Dose.FC.LYZ.S (log2 fold change) ([1]; dose 0.08 uM): −0.029 | Dose.FC.LYZ.S (log2 fold change) ([1]; dose 0.40 uM): −0.087 | Dose.FC.LYZ.S (log2 fold change) ([1]; dose 2.00 uM): −0.096 | Dose.FC.LYZ.S (log2 fold change) ([1]; dose 10.00 uM): −0.057 | Dose.FC.CTG (log2 fold change) (ENR+CD organoids; dose 0.08 uM): −0.045 | Dose.FC.CTG (log2 fold change) (ENR+CD organoids; dose 0.40 uM): 0.066 | Dose.FC.CTG (log2 fold change) (ENR+CD organoids; dose 2.00 uM): −0.157 | Dose.FC.CTG (log2 fold change) (ENR+CD organoids; dose 10.00 uM): −0.038 | Dose.FC.LYZ.NS (log2 fold change) ([2]; dose 0.08 uM): −0.015 | Z.LYZ.NS (standard z score) ([2]; dose 0.08 uM): −0.131 | Dose.FC.LYZ.NS (log2 fold change) ([2]; dose 0.40 uM): −0.035 | Z.LYZ.NS (standard z score) ([2]; dose 0.40 uM): −0.304 | Dose.FC.LYZ.NS (log2 fold change) ([2]; dose 2.00 uM): −0.003 | Z.LYZ.NS (standard z score) ([2]; dose 2.00 uM): −0.022 | Dose.FC.LYZ.NS (log2 fold change) ([2]; dose 10.00 uM): −0.041 | Z.LYZ.NS (standard z score) ([2]; dose 10.00 uM): −0.353

O=[N+]([O-])c1ccc2c(c1)S(=O)(=O)C=C2 [Stattic]
Dose.FC.LYZ.S [1, 7]: 0.150 log2 fold change | Dose.FC.LYZ.S [1, 8]: 0.033 log2 fold change | Dose.FC.LYZ.S [1, 9]: 0.082 log2 fold change | Dose.FC.LYZ.S [1, 10]: −0.019 log2 fold change | Dose.FC.CTG (ENR+CD organoids; [7]): −0.080 log2 fold change | Z.CTG (ENR+CD organoids; dose 0.08 uM): −0.191 | Dose.FC.CTG (ENR+CD organoids; [8]): −0.005 log2 fold change | Z.CTG (ENR+CD organoids; dose 0.40 uM): −0.011 | Dose.FC.CTG (ENR+CD organoids; [9]): 0.033 log2 fold change | Z.CTG (ENR+CD organoids; dose 2.00 uM): 0.078 | Dose.FC.CTG (ENR+CD organoids; [10]): −0.025 log2 fold change | Z.CTG (ENR+CD organoids; dose 10.00 uM): −0.060 | Dose.FC.LYZ.NS [2, 7]: 0.130 log2 fold change | Z.LYZ.NS ([2]; dose 0.08 uM): 1.131 | Dose.FC.LYZ.NS [2, 8]: 0.022 log2 fold change | Z.LYZ.NS ([2]; dose 0.40 uM): 0.189 | Dose.FC.LYZ.NS [2, 9]: 0.147 log2 fold change | Z.LYZ.NS ([2]; dose 2.00 uM): 1.276 | Dose.FC.LYZ.NS [2, 10]: −0.021 log2 fold change | Z.LYZ.NS ([2]; dose 10.00 uM): −0.186

O=C(NNc1nc2cc(F)ccc2n2cccc12)c1cnccn1 [SC144]
Dose.FC.LYZ.S [1, 7]: 0.098 log2 fold change | Dose.FC.LYZ.S [1, 8]: 0.014 log2 fold change | Dose.FC.LYZ.S [1, 9]: −0.131 log2 fold change | Dose.FC.LYZ.S [1, 10]: −0.211 log2 fold change | Dose.FC.CTG (ENR+CD organoids; [7]): 0.160 log2 fold change | Z.CTG (ENR+CD organoids; dose 0.08 uM): 0.381 | Dose.FC.CTG (ENR+CD organoids; [8]): 0.129 log2 fold change | Z.CTG (ENR+CD organoids; dose 0.40 uM): 0.309 | Dose.FC.CTG (ENR+CD organoids; [9]): −0.257 log2 fold change | Z.CTG (ENR+CD organoids; dose 2.00 uM): −0.613 | Dose.FC.CTG (ENR+CD organoids; [10]): −0.885 log2 fold change | Z.CTG (ENR+CD organoids; dose 10.00 uM): −2.113 | Dose.FC.LYZ.NS [2, 7]: 0.067 log2 fold change | Z.LYZ.NS ([2]; dose 0.08 uM): 0.582 | Dose.FC.LYZ.NS [2, 8]: −0.013 log2 fold change | Z.LYZ.NS ([2]; dose 0.40 uM): −0.112 | Dose.FC.LYZ.NS [2, 9]: −0.025 log2 fold change | Z.LYZ.NS ([2]; dose 2.00 uM): −0.220 | Dose.FC.LYZ.NS [2, 10]: −0.156 log2 fold change | Z.LYZ.NS ([2]; dose 10.00 uM): −1.355

OCCn1cc(-c2cnc3nnn(Cc4ccc5ncccc5c4)c3n2)cn1 [PF-04217903]
Dose.FC.LYZ.S [1, 11]: 0.110 log2 fold change | Dose.FC.LYZ.S [1, 12]: 0.265 log2 fold change | Dose.FC.LYZ.S [1, 13]: 0.049 log2 fold change | Dose.FC.LYZ.S [1, 14]: 0.127 log2 fold change | Z.CTG (ENR+CD organoids; dose 0.08 uM): 0.326 | Z.CTG (ENR+CD organoids; dose 0.40 uM): 0.616 | Z.CTG (ENR+CD organoids; dose 2.00 uM): −0.122 | Z.CTG (ENR+CD organoids; dose 10.00 uM): 0.276 | Dose.FC.CTG (ENR+CD organoids; [11]): 0.136 log2 fold change | Dose.FC.CTG (ENR+CD organoids; [12]): 0.258 log2 fold change | Dose.FC.CTG (ENR+CD organoids; [13]): −0.051 log2 fold change | Dose.FC.CTG (ENR+CD organoids; [14]): 0.116 log2 fold change | Z.LYZ.NS ([2]; dose 0.08 uM): 0.742 | Z.LYZ.NS ([2]; dose 0.40 uM): 1.404 | Z.LYZ.NS ([2]; dose 2.00 uM): 1.060 | Z.LYZ.NS ([2]; dose 10.00 uM): 0.617 | Dose.FC.LYZ.NS [2, 11]: 0.085 log2 fold change | Dose.FC.LYZ.NS [2, 12]: 0.161 log2 fold change | Dose.FC.LYZ.NS [2, 13]: 0.122 log2 fold change | Dose.FC.LYZ.NS [2, 14]: 0.071 log2 fold change
